From patent US20230219965A1 (KSQ Therapeutics, Inc., priority 2020, published 2023)

Molecular target: USP1/UAF1 enzyme (Homo sapiens, UniProt O94782)
Assay: USP1/UAF1 deubiquitination assay (ubiquitin-rhodamine 110 substrate)
Assay type: biochemical
Settings: read-out: USP1 IC50 (Ub-Rho)
Description: Certain Compounds of the Disclosure were assessed for USP1/UAF1 activity in a Ubiquitin Rhodamine assay modified from those described previously.
Deubiquitinase activity was measured using ubiquitin-rhodamine 110 as a substrate. Cleavage of the amide bond between rhodamine and the c-terminal glycine of ubiquitin yields an increase in fluorescence signal. The assay was conducted in 20 μl total volume of assay buffer (50 mM Tris-HCl, pH 7.8, 0.5 mM EDTA, 0.01% Bovine Serum Albumin, 1 mM DTT, 0.01% Tween-20), and 0.05 nM USP1/UAF1 enzyme. Reaction was initiated by addition of 150 nM Ubiquitin-rhodamine (Boston Biochem) substrate.
Compounds of the Disclosure, dissolved in DMSO were tested in dose response format, beginning at […].
The example compounds listed below were added to enzyme/assay buffer mix and incubated 10 min. Substrate mix was added, and reaction mix was read in kinetic mode for 30 min at Ex480/Em540 and IC50 response curves were plotted.
Data for all assay formats was calculated as percent inhibition compared with control wells. Percent inhibition was calculated using the following equation: % inhibition=100×[1−(X−min)/(max−min)], where X is the raw data readout, min is the average of the no enzyme control wells (n=32), max is the average of the DMSO control well (n=32). IC50 values were calculated using the standard four parameter curve fitting algorithm in either Prism GraphPad (La Jolla, Calif.) software, or Collaborative Drug Discovery (Burlingame, Calif.) CDD Vault. See Chem. Biol. 20(1): 55-62 (Jan. 24, 2013); Bioorg. Med. Chem. Lett. 23(20): 5660-5666 (Oct. 15, 2013).

Chain of USP1/UAF1 enzyme (O94782 whole entry): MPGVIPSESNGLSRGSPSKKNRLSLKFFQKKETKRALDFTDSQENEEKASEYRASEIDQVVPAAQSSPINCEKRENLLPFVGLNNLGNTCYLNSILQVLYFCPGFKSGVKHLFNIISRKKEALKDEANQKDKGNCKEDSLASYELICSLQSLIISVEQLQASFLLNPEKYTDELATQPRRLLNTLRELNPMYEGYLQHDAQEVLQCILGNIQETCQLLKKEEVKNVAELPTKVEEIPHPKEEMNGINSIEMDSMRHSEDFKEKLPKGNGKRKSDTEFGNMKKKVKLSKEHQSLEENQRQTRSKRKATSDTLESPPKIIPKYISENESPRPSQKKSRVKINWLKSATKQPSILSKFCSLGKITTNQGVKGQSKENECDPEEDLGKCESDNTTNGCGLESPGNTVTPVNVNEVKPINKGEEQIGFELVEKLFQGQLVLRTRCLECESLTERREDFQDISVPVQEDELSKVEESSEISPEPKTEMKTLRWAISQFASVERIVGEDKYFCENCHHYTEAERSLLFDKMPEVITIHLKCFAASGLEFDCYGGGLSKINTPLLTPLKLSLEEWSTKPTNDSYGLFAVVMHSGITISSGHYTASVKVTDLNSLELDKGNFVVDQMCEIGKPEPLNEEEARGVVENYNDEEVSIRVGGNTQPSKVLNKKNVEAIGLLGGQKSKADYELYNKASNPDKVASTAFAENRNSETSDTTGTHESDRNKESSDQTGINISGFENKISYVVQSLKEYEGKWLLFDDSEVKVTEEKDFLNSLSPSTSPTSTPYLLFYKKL
Chain of USP1/UAF1 enzyme (Q8TAF3 whole entry partner): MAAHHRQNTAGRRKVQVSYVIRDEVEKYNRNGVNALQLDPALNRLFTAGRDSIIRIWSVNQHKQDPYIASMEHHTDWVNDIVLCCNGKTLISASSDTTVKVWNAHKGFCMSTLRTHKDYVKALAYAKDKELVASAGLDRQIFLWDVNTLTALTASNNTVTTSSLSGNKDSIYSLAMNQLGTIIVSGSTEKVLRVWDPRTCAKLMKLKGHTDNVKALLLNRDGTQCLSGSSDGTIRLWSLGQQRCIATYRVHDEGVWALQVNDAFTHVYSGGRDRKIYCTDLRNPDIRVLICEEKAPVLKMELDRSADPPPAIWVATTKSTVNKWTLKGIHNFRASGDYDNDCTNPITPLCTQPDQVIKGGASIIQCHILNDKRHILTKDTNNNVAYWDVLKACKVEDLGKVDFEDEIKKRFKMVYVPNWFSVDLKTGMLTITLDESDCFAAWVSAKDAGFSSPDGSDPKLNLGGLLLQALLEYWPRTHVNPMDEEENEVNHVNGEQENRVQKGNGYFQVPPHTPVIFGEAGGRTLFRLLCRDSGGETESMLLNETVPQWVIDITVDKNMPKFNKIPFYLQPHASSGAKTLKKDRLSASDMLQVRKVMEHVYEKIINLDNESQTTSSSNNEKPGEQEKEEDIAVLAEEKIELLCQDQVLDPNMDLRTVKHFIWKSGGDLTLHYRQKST

SMILES	IC50 [nM]
CC(C)n1ccnc1-c1ccc(CN2C(=O)CCn3nc(-c4c(Cl)cnn4C(C)C)cc32)cc1Cl [Example 303]	100 to 500
CCNc1ccc(-c2ccc(CN3C(=O)CCn4nc(-c5c(Cl)cnn5C(C)C)cc43)cc2Cl)nn1 [Example 314]	> 500
CC(C)n1cnc(-c2ccc(CN3C(=O)CCn4nc(-c5c(Cl)cnn5C(C)C)cc43)cc2Cl)c1 [Example 315]	> 500
CC(C)n1ncc(Cl)c1-c1cc2n(n1)CCC(=O)N2Cc1ccc(-c2nc(C(F)(F)F)ccc2F)c(Cl)c1 [Example 316]	100 to 500
CC(C)n1ncc(Cl)c1-c1cc2n(n1)CCC(=O)N2Cc1ccc(-c2ccn(S(=O)(=O)N(C)C)n2)c(Cl)c1 [Example 320]	100 to 500
CC(C)n1ncc(Cl)c1-c1nc2n(n1)CCC(=O)N2Cc1ccc(-c2ncccc2OCC(F)F)cc1 [Example 322]	100 to 500
CCn1cc(C(F)(F)F)nc1-c1ccc([C@@H](C)N2C(=O)CCn3nc(-c4c(C#N)cnn4C(C)C)cc32)cc1F [Example 326, (R)-5-(4-(1-(4-(1-ethyl-4-(trifluoromethyl)-1H-imidazol-2-yl)-3-fluorophenyl)ethyl)-5-oxo-4,5,6,7-tetrahydropyrazolo[1,5-α]pyrimidin-2-yl)-1-isopropyl-1H-pyrazole-4-carbonitrile]	100 to 500
CCn1cc(C(F)(F)F)nc1-c1ccc(CN2C(=O)CCn3nc(-c4c(OC(F)F)cnn4C(C)C)cc32)cc1F [Example 329, 2-(4-(difluoromethoxy)-1-isopropyl-1H-pyrazol-5-yl)-4-(4-(1-ethyl-4-(trifluoromethyl)-1H-imidazol-2-yl)-3-fluorobenzyl)-6,7-dihydropyrazolo[1,5-α]pyrimidin-5(4H)-one]	100 to 500
CC(C)n1cc(C(F)(F)F)nc1-c1ccc(Cn2c(=O)ccn3nc(-c4c(OC(F)F)ncnc4C4CC4)nc23)cc1 [Example 344, 2-(4-cyclopropyl-6-(difluoromethoxy)pyrimidin-5-yl)-4-(4-(1-isopropyl-4-(trifluoromethyl)-1H-imidazol-2-yl)benzyl)-[1,2,4]triazolo[1,5-a]pyrimidin-5(4H)-one]	< 100
CCn1cc(C(F)(F)F)nc1-c1cnc(CN2C(=O)CCn3nc(-c4c(Cl)cnn4C(C)C)cc32)nc1 [Example 354, 2-(4-chloro-1-isopropyl-1H-pyrazol-5-yl)-4-((5-(1-ethyl-4-(trifluoromethyl)-1H-imidazol-2-yl)pyrimidin-2-yl)methyl)-6,7-dihydropyrazolo[1,5-α]pyrimidin-5(4H)-one]	> 500
CCn1cc(C(F)(F)F)nc1-c1ccc(N(C)C2CCCc3nn(-c4ccccc4C(C)C)cc32)cc1F (stereo not drawn) [Example 356, N-(4-(1-ethyl-4-(trifluoromethyl)-1H-imidazol-2-yl)-3-fluorophenyl)-2-(2-isopropylphenyl)-N-methyl-4,5,6,7-tetrahydro-2H-indazol-4-amine]	100 to 500
CCn1cc(C(F)(F)F)nc1-c1ccc(CC2NCCn3nc(-c4c(Cl)cnn4C(C)C)cc32)cc1 (stereo not drawn) [Example 359, 2-(4-chloro-1-isopropyl-1H-pyrazol-5-yl)-4-(4-(1-ethyl-4-(trifluoromethyl)-1H-imidazol-2-yl)benzyl)-4,5,6,7-tetrahydropyrazolo[1,5-α]pyrazine]	100 to 500
CCn1cc(C(F)(F)F)nc1-c1ccc(CC2NCCn3nc(-c4c(OC)ncnc4C4CC4)cc32)cc1 (stereo not drawn) [Example 361, 2-(4-cyclopropyl-6-methoxypyrimidin-5-yl)-4-(4-(1-ethyl-4-(trifluoromethyl)-1H-imidazol-2-yl)benzyl)-4,5,6,7-tetrahydropyrazolo[1,5-a]pyrazine]	100 to 500
CC(CF)n1cc(C(F)(F)F)nc1-c1ccc(CN2C(=O)CCn3nc(-c4c(OC(F)F)ncnc4C4CC4)nc32)cc1 (stereo not drawn) [Example 366, 2-(4-cyclopropyl-6-(difluoromethoxy)pyrimidin-5-yl)-4-(4-(1-(1-fluoropropan-2-yl)-4-(trifluoromethyl)-1H-imidazol-2-yl)benzyl)-6,7-dihydro-[1,2,4]triazolo[1,5-a]pyrimidin-5(4H)-one]	< 100
O=C1CCn2nc(-c3c(OC(F)F)ncnc3C3CC3)nc2N1Cc1ccc(-c2nc(C(F)(F)F)cn2CCF)cc1 [Example 367, 2-(4-cyclopropyl-6-(difluoromethoxy)pyrimidin-5-yl)-4-(4-(1-(2-fluoroethyl)-4-(trifluoromethyl)-1H-imidazol-2-yl)benzyl)-6,7-dihydro-[1,2,4]triazolo[1,5-a]pyrimidin-5(4H)-one]	< 100
Cn1cc(C(F)(F)F)nc1-c1ccc(CN2C(=O)CCn3nc(-c4c(OC(F)F)ncnc4C4CC4)nc32)cc1 [Example 368, 2-(4-cyclopropyl-6-(difluoromethoxy)pyrimidin-5-yl)-4-(4-(1-methyl-4-(trifluoromethyl)-1H-imidazol-2-yl)benzyl)-6,7-dihydro-[1,2,4]triazolo[1,5-a]pyrimidin-5(4H)-one]	< 100
CC(C)n1cc(C(F)(F)F)nc1-c1ccc(CN2C(=O)CCn3nc(-c4c(OC(F)F)ncnc4C4CC4)nc32)cc1 [Example 369, 2-(4-cyclopropyl-6-(difluoromethoxy)pyrimidin-5-yl)-4-(4-(1-isopropyl-4-(trifluoromethyl)-1H-imidazol-2-yl)benzyl)-6,7-dihydro-[1,2,4]triazolo[1,5-a]pyrimidin-5(4H)-one]	< 100
COc1ncnc(C2CC2)c1-c1nc2n(n1)CCC(=O)N2C(C)c1ccc(-n2nc(C(F)(F)F)cc2OC)cc1 (stereo not drawn) [Example 372, 2-(4-cyclopropyl-6-methoxypyrimidin-5-yl)-4-(1-(4-(5-methoxy-3-(trifluoromethyl)-1H-pyrazol-1-yl)phenyl)ethyl)-6,7-dihydro-[1,2,4]triazolo[1,5-a]pyrimidin-5(4H)-one]	< 100
CCn1cc(C(F)(F)F)nc1-c1ccc(CN2C(=O)CCn3nc(-c4c(C5CC5)ccnc4OC(F)F)nc32)cc1 [Example 373, 2-(4-cyclopropyl-2-(difluoromethoxy)pyridin-3-yl)-4-(4-(1-ethyl-4-(trifluoromethyl)-1H-imidazol-2-yl)benzyl)-6,7-dihydro-[1,2,4]triazolo[1,5-a]pyrimidin-5(4H)-one]	100 to 500
[2H]C([2H])([2H])C([2H])(n1cc(C(F)(F)F)nc1-c1ccc(CN2C(=O)CCn3nc(-c4c(OC(F)F)ncnc4C4CC4)nc32)cc1)C([2H])([2H])[2H] [Example 374, 2-(4-cyclopropyl-6-(difluoromethoxy)pyrimidin-5-yl)-4-(4-(1-(propan-2-yl-d7)-4-(trifluoromethyl)-1H-imidazol-2-yl)benzyl)-6,7-dihydro-[1,2,4]triazolo[1,5-a]pyrimidin-5(4H)-one]	< 100
[2H]C([2H])([2H])C([2H])([2H])n1cc(C(F)(F)F)nc1-c1ccc(CN2C(=O)CCn3nc(-c4c(OC(F)F)ncnc4C4CC4)nc32)cc1 [Example 375, 2-(4-cyclopropyl-6-(difluoromethoxy)pyrimidin-5-yl)-4-(4-(1-(ethyl-d5)-4-(trifluoromethyl)-1H-imidazol-2-yl)benzyl)-6,7-dihydro-[1,2,4]triazolo[1,5-a]pyrimidin-5(4H)-one]	< 100
CCn1cc(C(F)(F)F)nc1-c1ccc(CN2C(=O)CCn3nc(-c4c(OC)ncnc4OC(F)F)nc32)cc1 [Example 376, 2-(4-(difluoromethoxy)-6-methoxypyrimidin-5-yl)-4-(4-(1-ethyl-4-(trifluoromethyl)-1H-imidazol-2-yl)benzyl)-6,7-dihydro-[1,2,4]triazolo[1,5-a]pyrimidin-5(4H)-one]	< 100
Cn1cc(C(F)(F)F)nc1-c1ccc(CN2C(=O)CCn3nc(-c4c(OC(F)F)ncnc4C4CC4)nc32)cc1F [Example 377, 2-(4-cyclopropyl-6-(difluoromethoxy)pyrimidin-5-yl)-4-(3-fluoro-4-(1-methyl-4-(trifluoromethyl)-1H-imidazol-2-yl)benzyl)-6,7-dihydro-[1,2,4]triazolo[1,5-a]pyrimidin-5(4H)-one]	< 100

Other lines, results leading:

IC50 [nM]	SMILES
100 to 500	COCc1cccnc1-c1ccc(CN2C(=O)CCn3nc(-c4c(Cl)cnn4C(C)C)cc32)cc1Cl [Example 300]
100 to 500	COc1cc(C)cnc1-c1ccc(CN2C(=O)CCn3nc(-c4c(Cl)cnn4C(C)C)cc32)cc1Cl [Example 301]
100 to 500	CC(C)Oc1cccnc1-c1ccc(CN2C(=O)CCn3nc(-c4c(Cl)cnn4C(C)C)nc32)cc1Cl [Example 302]
100 to 500	COc1cccnc1-c1ccc(CN2C(=O)CCn3nc(-c4c(OC)ncnc4C4CC4)nc32)cc1Cl [Example 306]
100 to 500	COc1cccnc1-c1ccc(CN2C(=O)CCn3nc(-c4c(OC)ncnc4C4CC4)nc32)cc1F [Example 308]
> 500	COc1cc(CN2C(=O)CCn3nc(-c4c(Cl)cnn4C(C)C)cc32)ccc1-c1ncccc1Cl [Example 311]
100 to 500	COc1cccnc1-c1ccc(CN2C(=O)CCn3nc(-c4c(OC)ncnc4C4CC4)cc32)cc1Cl [Example 313]
100 to 500	COc1cccnc1-c1ccc(CN2C(=O)CCn3nc(-c4c(OC)ncnc4C4CC4)cc32)cc1F [Example 317]
> 500	COc1cncnc1-c1ccc(CN2C(=O)CCn3nc(-c4c(Cl)cnn4C(C)C)cc32)cc1Cl [Example 318]
> 500	COc1ccc(-c2ccc(CN3C(=O)CCn4nc(-c5c(Cl)cnn5C(C)C)cc43)cc2Cl)nn1 [Example 319]
